In US10765114B2, “4-amino-6-(pyridyl and 2-substitutedphenyl)-picolinates and 6-amino-2-(pyridyl and 2-substitutedphenyl)-pyrimidine-4-carboxylates and their use as herbicides” (Dow AgroSciences LLC, priority 2013, dated 2020):
Read-outs that look alike come from different tables or passages of the source.

Assays:
[1] = test system: Key Broadleaf Weed and Crop Species; test: Post-Emergent Test II (Table 5); format: in vivo; conditions: post-emergence, 336 h; for pest or weed control at 70 g/ha: application rate 70 (kg ai/ha; footnote: g ai/ha); for pest or weed control at 140 g/ha: application rate 140 (kg ai/ha; footnote: g ai/ha)
Procedure, shortened: (§1)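 Seedlings are raised 7-21 days in Metro-Mix 360 (pH 6.0-6.8) under greenhouse conditions, then sprayed at the first or second true leaf stage. Application is 187 L/ha, with serial rates down to 1/16× of the highest. Plants are subirrigated, and percent injury is rated visually after 14 days.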

[2] = test system: Key Grass and Sedge Weeds as well as Grass Crops; test: Post-Emergent Test II (Table 6); format: in vivo; conditions: post-emergence, 336 h, 14 days after application; for pest or weed control at 70 g/ha: 70 g ai/ha; for pest or weed control at 140 g/ha: 140 g ai/ha
Procedure, shortened: as §1

[3] = Abutilon theophrasti, ABUTH: velvetleaf (Abutilon theophrasti), read-out: Visual Growth Reduction (%) 14 Days After Application ABUTH
[4] = Amaranthus retroflexus, AMARE: redroot pigweed (Amaranthus retroflexus), read-out: Visual Growth Reduction (%) 14 Days After Application AMARE
[5] = Brassica napus, BRSSS: oilseed rape, canola (Brassica napus), read-out: Visual Growth Reduction (%) 14 Days After Application BRSSS
[6] = Chenopodium album, CHEAL: lambsquarters (Chenopodium album), read-out: Visual Growth Reduction (%) 14 Days After Application CHEAL
[7] = Euphorbia heterophylla, EPHHL: wild poinsettia (Euphorbia heterophylla), read-out: Visual Growth Reduction (%) 14 Days After Application EPHHL
[8] = Helianthus annuus, HELAN: sunflower (Helianthus annuus), read-out: Visual Growth Reduction (%) 14 Days After Application HELAN
[9] = Viola tricolor, VIOTR: wild pansy (Viola tricolor), read-out: Visual Growth Reduction (%) 14 Days After Application VIOTR
[10] = CYPSS, read-out: Visual Growth Reduction (%) 14 Days After Application CYPSS
[11] = DIGSA: crabgrass (Digitaria sanguinalis), read-out: Visual Growth Reduction (%) 14 Days After Application DIGSA
[12] = ECHSS, read-out: Visual Growth Reduction (%) 14 Days After Application ECHSS
[13] = ORYSS (crop), read-out: Visual Growth Reduction (%) 14 Days After Application ORYSS
[14] = SETFA: giant foxtail (Setaria faberi), read-out: Visual Growth Reduction (%) 14 Days After Application SETFA
[15] = SORVU: grain sorghum (Sorghum vulgare), read-out: Visual Growth Reduction (%) 14 Days After Application SORVU
[16] = TRZSS (crop), read-out: Visual Growth Reduction (%) 14 Days After Application TRZSS
[17] = ZEAMX: maize, corn (Zea mays), read-out: Visual Growth Reduction (%) 14 Days After Application ZEAMX

Compound | pest or weed control at 70 g/ha [1, 3] [%] | pest or weed control at 140 g/ha [1, 3] [%] | pest or weed control at 70 g/ha [1, 4] [%] | pest or weed control at 140 g/ha [1, 4] [%] | pest or weed control at 70 g/ha [1, 5] [%] | pest or weed control at 140 g/ha [1, 5] [%] | pest or weed control at 70 g/ha [1, 6] [%] | pest or weed control at 140 g/ha [1, 6] [%] | pest or weed control at 70 g/ha [1, 7] [%] | pest or weed control at 140 g/ha [1, 7] [%] | pest or weed control at 70 g/ha [1, 8] [%] | pest or weed control at 140 g/ha [1, 8] [%] | pest or weed control at 70 g/ha [1, 9] [%] | pest or weed control at 140 g/ha [1, 9] [%] | pest or weed control at 70 g/ha [2, 10] [%] | pest or weed control at 140 g/ha [2, 10] [%] | pest or weed control at 70 g/ha [2, 11] [%] | pest or weed control at 140 g/ha [2, 11] [%] | pest or weed control at 70 g/ha [2, 12] [%] | pest or weed control at 140 g/ha [2, 12] [%] | further results
COc1nc(Cl)ccc1-c1cc(N)c(Cl)c(C(=O)O)n1 [Compound 57] | 85 to 94 | 85 to 94 | 95 to 100 | 95 to 100 | 75 to 84 | 75 to 84 | 85 to 94 | 85 to 94 | 0 to 29 | 0 to 29 | 85 to 94 | 85 to 94 | 0 to 29 | 0 to 29 | 0 to 29 | 0 to 29 | 0 to 29 | 0 to 29 | 0 to 29 | 0 to 29 | pest or weed control at 70 g/ha [2, 13]: 0 to 29%; pest or weed control at 140 g/ha [2, 13]: 0 to 29%; pest or weed control at 70 g/ha [2, 14]: 0 to 29%; pest or weed control at 140 g/ha [2, 14]: 0 to 29%; pest or weed control at 70 g/ha [2, 15]: 0 to 29%; pest or weed control at 140 g/ha [2, 15]: 0 to 29%; pest or weed control at 70 g/ha [2, 16]: 0 to 29%; pest or weed control at 140 g/ha [2, 16]: 0 to 29%; pest or weed control at 70 g/ha [2, 17]: 0 to 29%; pest or weed control at 140 g/ha [2, 17]: 0 to 29%; melting point: 170 to 171 °C
Nc1c(F)c(-c2ccc(C(F)F)nc2)nc(C(=O)O)c1Cl [Compound 27, 4-amino-5-chloro-6′-(difluoromethyl)-3-fluoro-[2,3′-bipyridine]-6-carboxylic acid] | 85 to 94 | 95 to 100 | 95 to 100 | 95 to 100 | 85 to 94 | 85 to 94 | 95 to 100 | 95 to 100 | 95 to 100 | 95 to 100 | 95 to 100 | 95 to 100 | 60 to 74 | 60 to 74 | 95 to 100 | 95 to 100 | 75 to 84 | 85 to 94 | 85 to 94 | 85 to 94 | pest or weed control at 70 g/ha [2, 13]: 0 to 29%; pest or weed control at 140 g/ha [2, 13]: 0 to 29%; pest or weed control at 70 g/ha [2, 14]: 75 to 84%; pest or weed control at 140 g/ha [2, 14]: 85 to 94%; pest or weed control at 70 g/ha [2, 15]: 75 to 84%; pest or weed control at 140 g/ha [2, 15]: 85 to 94%; pest or weed control at 70 g/ha [2, 16]: 45 to 59%; pest or weed control at 140 g/ha [2, 16]: 60 to 74%; pest or weed control at 70 g/ha [2, 17]: 60 to 74%; pest or weed control at 140 g/ha [2, 17]: 75 to 84%; melting point: 167 to 169 °C
COC(=O)c1nc(-c2ccc(C3CC3)nc2)c(F)c(N)c1Cl [Compound 49] | 95 to 100 | 95 to 100 | 95 to 100 | 95 to 100 | 75 to 84 | 75 to 84 | 95 to 100 | 95 to 100 | 95 to 100 | 95 to 100 | 95 to 100 | 95 to 100 | 30 to 44 | 45 to 59 | 95 to 100 | 95 to 100 | 75 to 84 | 75 to 84 | 95 to 100 | 95 to 100 | pest or weed control at 70 g/ha [2, 13]: 30 to 44%; pest or weed control at 140 g/ha [2, 13]: 30 to 44%; pest or weed control at 70 g/ha [2, 14]: 85 to 94%; pest or weed control at 140 g/ha [2, 14]: 85 to 94%; pest or weed control at 70 g/ha [2, 15]: 85 to 94%; pest or weed control at 140 g/ha [2, 15]: 85 to 94%; pest or weed control at 70 g/ha [2, 16]: 45 to 59%; pest or weed control at 140 g/ha [2, 16]: 45 to 59%; pest or weed control at 70 g/ha [2, 17]: 95 to 100%; pest or weed control at 140 g/ha [2, 17]: 95 to 100%; melting point: 124 to 126 °C
